Reference: a melting point compilation (Tetko et al.; mined from patent text by program, amines drawn as free bases though some values may be those of a salt)

SMILES	melting point [°C]
CC(C)CN1CCN(C(=O)c2ccc(OCc3ccccc3)cc2)CC1	77.6 to 78.4
CCCCc1nn2cccc(C(=O)OCC)c2c1C(=O)c1ccc(Br)cc1	< 50
COc1ccc2c(c1)[C@H]1Cc3c(cc(C)c(OC)c3C)[C@H]1N2 (relative stereo)	149 to 150
Clc1nc2ccccc2c2[nH]c3ccccc3c12	249 to 250
CCOC(=O)c1ccc(OCCSc2ccccc2)cc1	50 to 51
COc1ccc2c(c1)CN(CCc1ccc(N)cc1)CC2	82 to 84
COC(=O)c1ccc2c(c1)S(=O)(=O)c1ccccc1N=C2N1CCOCC1	164 to 166
COc1cccc(-c2cn(-c3ccc(C(=O)O)cc3)nn2)c1	276 to 277
Nc1ccc(NC(=O)CCCCC2CCSS2)cc1 (stereo not given)	55 to 60
CC(C)=Cc1cn(-c2c(Cl)cc(C(F)(F)F)cc2Cl)nc1C#N	72 to 74
COc1ccc(C(=O)c2cc(Br)c(OC)cc2OC)c(F)c1	114 to 115
COc1ccc(CCNCCCOc2ccccc2NC(=O)c2cccc3[nH]ccc23)cc1OC	182
COc1ccccc1Oc1c(Cl)nc(-c2cccc(OCc3ccccc3)c2)nc1NS(=O)(=O)c1ccc(C)cn1	176 to 180
Cc1[nH]n(C2CCCO2)c2nc(-c3ccncc3)nc(=O)c1-2 (stereo not given)	268 to 269
O=C1C2=C(OCCO2)C(=O)c2cc(Cl)ccc21	209 to 210
CCCc1c(C(=O)O)cnc(C(F)(F)F)c1C(=O)O	236
O=C(N[C@H]1CC[C@H](CCN2CCC(c3cccc4c3CCO4)CC2)CC1)c1ccc(Cl)cc1Cl	188
COc1cccc(C(=O)C=CC2=CCC(OC)(N(C)C)C=C2)c1OC (stereo not given)	168 to 169
CC(O)(Cc1cnc(Cl)s1)c1ccc(Cl)cc1Cl (stereo not given)	164
COc1ccc(CNC(=S)N2CCN(c3ncnc4cc(OC)c(OC)cc34)CC2)cc1	201 to 204
CC(=O)OC1NC(=O)C2=C1CN=C(c1ccccc1Cl)c1cc(Cl)ccc12 (stereo not given)	172 to 174
CN1CCC(OC2c3ccccc3CCn3cc(-c4ccc(NC(=O)C(C)(C)C)cc4)nc32)CC1 (stereo not given)	120
CCCc1c2nc(C(=O)OCC)ccc2cc2c(=O)cc(C(=O)OCC)oc12	168 to 171
COC(=O)c1cc(-c2nn(C)c(SC)c2C)c(F)cc1Cl	82 to 83

SMILES	melting point [°C]
C#CCN(C(CCn1c(=O)[nH]c(C)c(C)c1=O)C(=O)NO)S(=O)(=O)c1ccc(Oc2ccccc2)cc1 (stereo not given)	180 to 181
CN1CCC(c2cc3cc(C4(O)CCCCC4)ccc3o2)CC1	155 to 157
COc1ccc(N2CCN(c3c(C)c(C)c4c(c3C)C[C@@H](C)O4)CC2)cc1	127 to 128
CCCCCCCCCCCCCCCCNc1ccc(COC(C)=O)cc1	43 to 45
CC(C)(C)Sc1c(CC(C)(C)C(=O)O)n(Cc2ccc(Cl)cc2)c2ccc(Oc3ccccn3)cc12	206 to 207
CCCCN(CCCCO)c1ccc(C=Cc2ccc(C=CC3=C(C#N)C(=C(C#N)C#N)OC3(C)C(F)(F)F)s2)c(OCc2ccccc2)c1 (stereo not given)	176 to 178
CCCCCCCCCCCCCCC(C)(C(=O)O)C(=O)O	83 to 85
CCN(CC)S(=O)(=O)c1cc2[nH]c(=O)c(=O)[nH]c2cc1[N+](=O)[O-]	> 360
Cc1c(C(O)C(C)(C)C)cc(I)[nH]c1=O (stereo not given)	186 to 187
CO/N=C/C1=NNC(=O)N(/N=C/c2cccnc2)C1	237 to 238
CCCCc1ncc(/C=C(\Cc2cccs2)c2nnn[nH]2)n1Cc1ccccc1[N+](=O)[O-]	231 to 234
CCOc1nn(-c2ccc(C(F)(F)F)cn2)cc1CCOc1cc(CCC(=O)O)n(-c2ccccc2)n1	155 to 156
BrCc1cc(CBr)cc(CBr)c1	95.5 to 97.5
Cn1c(=O)n(CCC[C@@H](NS(=O)(=O)c2ccc(-c3ccccc3)cc2)C(=O)NO)c(=O)c2ccccc21	202 to 203
CC(C)(C)c1cc(CCC(=O)NCCOC(=O)CCc2cc(C(C)(C)C)c(O)c(C(C)(C)C)c2)cc(C(C)(C)C)c1O	151 to 154
CCCOc1ccccc1-c1cccc(=O)[nH]1	134 to 136
CCOC(=O)c1cc2n(c1)C(C)Nc1ccccc1-2 (stereo not given)	102 to 103
CCCS(=O)(=O)c1sc(C(N)=O)c2c1-c1c(cnn1CC)CC2	143 to 144
Cc1oc(=O)c(Nc2ccc([N+](=O)[O-])cc2)nc1Cl	230 to 234
NC1CCN(C2c3ccccc3COc3ccc(Br)cc32)CC1 (stereo not given)	142 to 144
Nc1cc(I)c(I)cc1[N+](=O)[O-]	196 to 197
COc1ccc2c(c1)Oc1ccccc1C2	72 to 74
O=C(CCc1ccccc1)Nc1cc(-c2nnc(SCc3cccc(C(F)(F)F)c3)o2)ccn1	159 to 160
CCOc1cc2cc(CO)c(CO)c(-c3ccnc(-n4nc(-c5cccnc5)c5ccccc5c4=O)c3)c2cc1OCC	222

SMILES	melting point [°C]
C#CCC1(O)CCN(c2ccc(N3C[C@H](CNC(C)=O)OC3=O)cc2F)CC1	166 to 167
O=C1c2ccsc2S(=O)(=O)CCN1CCCCN1CCN(c2ncccn2)CC1	161 to 163
CCOC(=O)c1ccc(OCCCCC(=O)c2ccc(Cl)s2)cc1	87 to 89
COc1cc(Nc2nccc(-c3ccc(N4CCN(CCCN5C(=O)c6ccccc6C5=O)CC4)nc3)n2)cc(OC)c1OC	105 to 106
CCOC(=O)c1cc(CC)sc1Nc1ccc(Br)cc1[N+](=O)[O-]	76 to 78
Clc1cc(-c2ccccc2)ccn1	70 to 72
Cc1oc(-c2ccccc2)nc1COc1ccc(COc2ccc3ccccc3c2CCC(=O)O)cc1	161 to 162
COC(=O)c1ccc(OCCc2c[nH]cn2)cc1	116 to 118
Cn1ncc(C(=O)N2CCOCC2)c1C(=O)Nc1ccn2nc(-c3cccc(F)c3)nc2c1	212 to 214
COc1ccc(C2=C(c3c[nH]c4ccccc34)C(=O)NC2=O)cc1OC	210
O=C1OC(=O)C2=C1SCC(c1ccccc1)S2 (stereo not given)	131 to 133
CNC(=O)c1c(I)c(C#N)c(I)c(C(=O)OCC(O)CO)c1I (stereo not given)	117 to 120
Cc1ccc2[nH]c3c(c2c1)CCNC3(C(=O)OC(C)(C)C)C1(NC(=O)OCc2ccccc2)CCC1 (stereo not given)	219 to 220
CCOC(=O)c1nn(-c2ccccc2Br)c(=O)c2c(N)scc12	203 to 205
Cc1ccc(-c2nnc(S)nc2-c2ccc(C)cc2)cc1	220 to 223
COC(=O)Cc1ccc(C#C[Si](C)(C)C)cc1	55 to 58
O=[N+]([O-])c1cc(Cl)cc2cccnc12	149 to 155
CCCCOCCOc1ccc(-c2ccc3c(c2)C=C(C(=O)Nc2ccc(/C(Cc4nccn4CCC)=N/O)cc2)CCN3CC(C)C)cc1	154
O=C(C[C@H](NC(=O)C(F)(F)F)C(=O)O)c1ccc(F)cc1F	82.4 to 84
CCOC(=O)C1=C(N)Nc2ncnc(OC(C)C)c2C1c1ccccc1OC (stereo not given)	222 to 223
CC(C)OC(=O)NCNCN=O	66 to 67
C#C[C@@]1(O)[C@@H](COC(=O)c2ccc(Cl)cc2)OC(O)[C@@H]1O (stereo not given in full)	116 to 118
